Data published in US8034810B2, “Arylsulfonamido-substituted hydroxamic acid derivatives” (Novartis AG, priority 1999, dated 2011).
Where a name gives a salt, the structure may show the parent alone.

Target: T1, MMP1 (collagenase 1) (Homo sapiens, UniProt P03956)
T1 construct: made in house; host or cells: mouse C127 cells, vector pBPV-MMT, secreted into culture medium
T1 sequence (P03956 100-469): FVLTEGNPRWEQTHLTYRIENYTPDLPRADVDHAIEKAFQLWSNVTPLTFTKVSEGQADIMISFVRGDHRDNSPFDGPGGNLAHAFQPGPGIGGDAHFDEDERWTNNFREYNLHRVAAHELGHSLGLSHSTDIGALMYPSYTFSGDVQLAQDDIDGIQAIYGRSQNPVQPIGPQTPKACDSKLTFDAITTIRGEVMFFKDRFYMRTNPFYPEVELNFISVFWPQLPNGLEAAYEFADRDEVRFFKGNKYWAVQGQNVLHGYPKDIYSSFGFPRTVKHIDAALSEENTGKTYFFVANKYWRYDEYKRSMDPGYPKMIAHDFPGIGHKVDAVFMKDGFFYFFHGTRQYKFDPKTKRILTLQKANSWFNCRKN
Assay: In vitro inhibition of MMP1 (collagenase 1), fluorogenic peptide substrate
Type: biochemical
Conditions: APMA-activated recombinant human collagenase; substrate 10 μM; 37° C.
Method: The inhibitory activities of compounds of formula I on MT1-MMP, MMP1 (collagenase 1) and MMP2 (gelatinase A) can be determined as follows:
Stock solutions of substrate (MCA-Pro-Leu-Gly-Leu-Dpa-Ala-Arg-NH2, Knight, C. G., Willenbrock, F., Murphy, G., A novel coumarin-labelled peptide for sensitive continuous assays of the matrix metalloproteinases, FEBS lett., 296, 263-266, (1992)), are prepared in 100% DMSO at a concentration 1.0 mM. Stock solutions of inhibitors are prepared in 100% DMSO. The inhibitor is diluted into the assays from a solution in 100% DMSO, and controls substitute an equal volume of DMSO so that the final DMSO concentration from inhibitor and substrate dilutions in all assays is 6.0%. Assays are performed in assay buffer (150 mM NaCl, 10 mM CaCl2, 50 mM Tris-Cl pH7.5, 0.05% Brij-35) containing 6.0% DMSO once the substrate and inhibitor are diluted into it. The substrate concentration used in the assays is 10 μM. The test is carried out at 37° C. The fluorescence changes are monitored using an excitation wavelength of 320 nm and an emission wavelength of […]. The reaction mixture is added in duplicate to appropriate wells of a 96 well microfluor plate. The reaction mixture is preincubated with the inhibitor for 30 min, the reaction is started by the addition of MMP enzyme and the fluorescence intensity is measured for 10 min. A time point that is on a linear part of the curve is chosen to determine the activity. The inhibition results are expressed as the inhibitor concentrations that produced 50% inhibition (IC50) of the activity in the control (non-inhibited) reaction. In this test, the compounds of the formula I and their pharmacologically acceptable salts have an inhibiting concentration IC50 [μmol/litre] of 0.0001 and 0.030, usually of 0.0002 to 0.010, for MMP2 and an inhibiting concentration IC50 [μmol/litre] of 0.0005 and 0.125, usually of 0.001 to 0.05, for MT1-MMP.
Plasmid: The cDNA for human collagenase is generated by PCR of cDNA derived from RNA isolated from human U937 cells (ATCC# CRL-2367). The primers, used to generate this cDNA, are […] and AAGGCGGCCGCA […], corresponding to nucleotides 58 to 1526 of the reported cDNA sequence, GenBank accession number X05231. The resulting cDNA fragment is subcloned into Not I site of a mammalian expression vector pBPV-MMT (Matthias, P. et al., J. Mol. Biol. 1986, 187(4):557-68).
C127 cells (ATCC-mouse mammary tumor cell line) are grown in Dulbecco's Modified Essential Medium supplemented with 10% heat inactivated fetal bovine serum and 1× antibiotic-antimycotic solution at 37° C. in a humidified CO2 incubator. Cells seeded at 8×10^5 in 100 mm dishes are transfected using a calcium phosphate precipitation method. 5 h prior to transfection, medium is replaced with fresh medium. Each dish is transfected with 15 μg of the expression vector. Cells are washed twice with PBS 16-18 h after transfection and are incubated in growth medium for an additional 48 h. Clones are then selected by incubation with the Neomycin related antibiotic G418 at a concentration of 400 μg/ml. Media from selected clones are analyzed for collagenase expression by an enzymatic assay. Expression and Purification: 16 liters of culture medium are concentrated to 1.6 liters and the enzyme is isolated by the procedures described by Wilhelm et al. (Proc. Natl. Acad. Sci. (USA). 1987; 84: 6725-29). The final product is further purified on a Superose G-75 (Pharmacia/LKB, Piscataway, N.J.) gel filtration column equilibrated in the assay buffer containing 0.15 M NaCl. Enzyme is pooled and stored in aliquots at −70° C. Recombinant procollagenase (43-45 kDa) is activated with 1 mM APMA (Aminophenylmercuric acetate, ICN Pharmaceuticals) for 2 h at 37° C., and the APMA is removed by extensive dialysis against the assay buffer containing 0.15M NaCl. The activated enzyme (˜36-kDa) is stored frozen at −70° C. until use.

| Molecule | IC50 |
| --- | --- |
| C#CCOc1ccc(S(=O)(=O)N(CC(=O)NO)Cc2ccc(OC)cc2)cc1 [Example 75, [(4-methoxy-benzyl)-[4-prop-2-ynyloxy-benzenesulfonyl]-amino]-N-hydroxy-acetamide] | 0.069 µM |
| O=C(CN(Cc1ccc(-n2cncn2)cc1)S(=O)(=O)c1ccc(OCc2ccoc2)cc1)NO [Example 82c] | 5.1 µM |
| C=CCCOc1ccc(S(=O)(=O)N(CC(=O)NO)Cc2ccc(-n3ccnc3)cc2)cc1 [Example 80, 2-[(4-But-3-enyloxy-benzenesulfonyl)-(4-imidazol-1-yl-benzyl)-amino]-N-hydroxy-acetamide-hydrochloride] | 2.61 µM |
| C=CCCOc1ccc(S(=O)(=O)N(CC(=O)NO)Cc2cccc(F)n2)cc1 [Example 83a, 2-([4-But-3-enyloxy-benzenesulfonyl]-(6-fluoro-pyridine-2-yl)methyl-amino)-N-hydroxyacetamide] | 3.69 µM |
| C=CCCOc1ccc(S(=O)(=O)N(CC(=O)NO)Cc2ccc(-n3cncn3)cc2)cc1 [Example 79, 2-[(4-but-3-enyloxy-benzenesulfonyl)-(4-[1,2,4]triazol-1-yl-benzyl)-amino]-N-hydroxy-acetamide-hydrochloride salt] | 5.85 µM |
| COc1ccc(CN(CC(=O)NO)S(=O)(=O)c2ccc(OCCCCl)cc2)cc1 [Example 68, 2-{[4-(3-chloro-propoxy)-benzenesulfonyl]-(4-methoxy-benzyl)amino}-N-hydroxy-acetamide] | 0.622 µM |
| C=CCCOc1ccc(S(=O)(=O)N(CC(=O)NO)Cc2ccc(N3CCCC3)cc2)cc1 [Example 84a, 2-[(4-But-3-enyloxy-benzenesulfonyl)-(4-(pyrrolidin-1-yl)-benzyl)-amino]-N-hydroxyacetamide-hydrochloride] | 5.53 µM |
| 2-[(Cyclopropylmethoxy-benzenesulfonyl)-(4-[1,2,4]triazol-1-yl-benzyl)-amino]-N-hydroxyacetamide-hydrochloride salt [Example 82b] | 0.965 µM |
| O=C(CN(Cc1ccc(-n2cncn2)cc1)S(=O)(=O)c1ccc(OCCC2CC2)cc1)NO [Example 82a] | 4.21 µM |
| C=CCCOc1ccc(S(=O)(=O)N(CC(=O)NO)Cc2ccc(N3CCOCC3)cc2)cc1 [Example 81, 2-[(4-But-3-enyloxy-benzenesulfonyl)-(4-morpholin-4-yl-benzyl)-amino]-N-hydroxy-acetamide-hydrochloride] | 4.29 µM |
